Results taken from patent publication US6864217B2, “Herbicidal compositions with substituted phenylsulfonylureas for controlling weeds in rice” (Hoechst Schering AgrEvo GmbH, priority 1998, dated 2005).
Structures can show the parent of a compound that is named as a salt.

Tests used:
Oryza sativa [1] = experiment: Table 5 field trial, treatment at the 2-4 leaf stage rice: rice damage; assay type: in vivo; conditions: evaluation after 28 days
Method: (§6) The examples mentioned below were carried out in the greenhouse, and in some instances, in field trials.

Echinochloa crusgalli [2] = experiment: Table 8 greenhouse trial, treatment at the 1-2 leaf stage: weed control; assay type: in vivo; conditions: 22 days after application
From the text: (§1) Seeds or rhizome pieces of mono- and dicotyledonous weed plants are placed into sandy loam soil in plastic pots, covered with soil and grown in a greenhouse under good growth conditions (temperature, atmospheric humidity, water supply). Weeds which are encountered in the cultivation of rice are cultivated in pots in which the water level is up to 2 cm over the soil surface. […] The active compound combinations according to the invention, formulated as wettable powders or emulsion concentrates, and, in parallel experiments, the correspondingly formulated individual active compounds are sprayed onto the green parts of the plants at different dosages using an amount of water of 300 to 600 l/ha (converted), and, after about 3 to 4 weeks of the test plants in the greenhouse under optimum growth conditions (temperature, atmospheric humidity, water supply), the effect of the preparations is evaluated visually in comparison to untreated controls. In the case of rice or weeds which are encountered in the cultivation of rice, the active compounds are also added directly to the water for irrigation (application analogous to the so-called granules application) or sprayed onto plants and added to the water for irrigation. The experiments were designed with several, up to five, repetitions. The herbicidal compositions according to the invention also have good herbicidal post-emergence activity against a broad spectrum of economically important weed grasses and broad-leaved weeds.

Cyperus serotinus = experiment: Table 12 greenhouse trial, treatment at the 1-2 leaf stage: weed control; assay type: in vivo; conditions: 20 days after application
Method: (§2) Seeds or rhizome pieces of mono- and dicotyledonous weed plants are placed into sandy loam soil in plastic pots, covered with soil and grown in a greenhouse under good growth conditions (temperature, atmospheric humidity, water supply). Weeds which are encountered in the cultivation of rice are cultivated in pots in which the water level is up to 2 cm over the soil surface. Three weeks after sowing, the test plants are treated at the three-leaf stage. The active compound combinations according to the invention, formulated as wettable powders or emulsion concentrates, and, in parallel experiments, the correspondingly formulated individual active compounds are sprayed onto the green parts of the plants at different dosages using an amount of water of 300 to 600 l/ha (converted), and, after about 3 to 4 weeks of the test plants in the greenhouse under optimum growth conditions (temperature, atmospheric humidity, water supply), the effect of the preparations is evaluated visually in comparison to untreated controls. In the case of rice or weeds which are encountered in the cultivation of rice, the active compounds are also added directly to the water for irrigation (application analogous to the so-called granules application) or sprayed onto plants and added to the water for irrigation. The experiments were designed with several, up to five, repetitions. The herbicidal compositions according to the invention also have good herbicidal post-emergence activity against a broad spectrum of economically important weed grasses and broad-leaved weeds.
(§3) Greenhouse trial: Treatment at the 1-2 leaf stage, evaluation 20 days after the application.

Oryza sativa [3] = experiment: Table 12 greenhouse trial, treatment at the 1-2 leaf stage: rice damage; assay type: in vivo; conditions: in vivo
Method: as §2, §3

Oryza sativa [4] = experiment: Table 3 field trial, treatment at the 4-5 leaf stage (seed rice): rice damage; conditions: 28 days after application
Method: as §6

Oryza sativa [5] = experiment: Table 10 greenhouse trial, treatment at the 1-2 leaf stage: rice damage; assay type: in vivo; conditions: in vivo
Method: as §2, §3

Marsilea crenata = experiment: Table 7 field trial, treatment at the 1-2 leaf stage: weed control; assay type: in vivo; conditions: 2 g of ai/ha, 28 days after application
Method: as §6

Sagittaria pygmaea = experiment: Table 13 greenhouse trial, treatment at the 5-6 leaf stage: weed control; assay type: in vivo; conditions: 20 days after application
Method: as §2
(§4) Greenhouse trial: Treatment at the 5-6 leaf stage, evaluation 20 days after the application.

Oryza sativa [6] = experiment: Table 14 greenhouse trial, treatment at the 3-4 leaf stage: rice damage; assay type: in vivo; conditions: 21 days after application
Method: as §2
Greenhouse trial: Treatment at the 3-4 leaf stage, evaluation 21 days after the application.

Oryza sativa [7] = experiment: Table 13 greenhouse trial, treatment at the 5-6 leaf stage: rice damage; assay type: in vivo; conditions: 20 days after application
Method: as §2, §4

Cyperus iria = experiment: Table 24 field trial, treatment by the pre-emergence method: weed control; assay type: in vivo; conditions: 53 days after application
From the text: (§5) Field trial: Treatment by the pre-emergence method, evaluation 53 days after the application.

Oryza sativa [8] = experiment: Table 20 field trial, treatment at the 4-6 leaf stage: rice damage; assay type: in vivo; conditions: 2.5 g of ai/ha, 28 days after application
From the text: Field trial: Treatment at the 4-6 leaf stage, evaluation 28 days after the application.

Oryza sativa [9] = experiment: Table 8 greenhouse trial, treatment at the 1-2 leaf stage: rice damage; assay type: in vivo; conditions: 22 days after application
From the text: as §1

Oryza sativa [10] = experiment: Table 15 greenhouse trial, treatment at the 2-3 leaf stage: rice damage; assay type: in vivo; conditions: 20 days after application
Method: as §2

Echinochloa crusgalli [11] = experiment: Table 11 greenhouse trial, treatment at the 1-2 leaf stage: weed control; assay type: in vivo; conditions: 20 days after application
Method: as §2, §3

Oryza sativa [12] = experiment: Table 2 field trial, treatment at the 1-2 leaf stage rice: rice damage; conditions: 28 days after application
Method: as §6

Echinochloa crusgalli [13] = experiment: Table 9 greenhouse trial, treatment at the 1-2 leaf stage: weed control; assay type: in vivo; conditions: 22 days after application
Method: as §2
Greenhouse trial: Treatment at the 1-2 leaf stage, evaluation 22 days after the application.

Leptochloa filiformis = experiment: Table 2a field trial, treatment at the 2-3 leaf stage weed grasses: weed control; assay type: in vivo; conditions: 28 days after application
Method: as §6

Eleusine indica = experiment: Table 2 field trial, treatment at the 2-3 leaf stage weed grasses: weed control; assay type: in vivo; conditions: 28 days after application
Method: as §6

Oryza sativa [14] = experiment: Table 26 field trial, treatment at the 3 leaf stage: rice damage; assay type: in vivo; conditions: 33 days after application
From the text: Field trial: Treatment at the 3 leaf stage, evaluation 33 days after the application.

Oryza sativa [15] = experiment: Table 24 field trial, treatment by the pre-emergence method: rice damage; assay type: in vivo; conditions: field trial, pre-emergence method, 53 days after application
From the text: as §5

Oryza sativa [16] = experiment: Table 6 field trial, treatment at the 1-2 leaf stage: rice damage; assay type: in vivo; conditions: 2 g of ai/ha; field trial, 28 days after application
Method: as §6

**Q.** How did the ORYSW % damage (Oryza sativa [1]; 1.25 g of ai/ha) turn out when `COC(=O)c1ccc(I)cc1S(=O)(=O)NC(=O)Nc1nc(C)nc(OC)n1` [A1*), Sodium salt of methyl 4-iodo-2-[3-(4-methoxy-6-methyl-1,3,5-triazin-2-yl)ureidosulfonyl]benzoate] was run?
**A.** Its ORYSW % damage is 0%.

**Q.** And the ORYSW % damage (Oryza sativa [1]; 2.5 g of ai/ha)?
**A.** The ORYSW % damage was 0%.

**Q.** What about the ORYSW % damage (Oryza sativa [1]; 5 g of ai/ha) of the same compound?
**A.** The ORYSW % damage was 1%.

**Q.** What about the ECHCG % control (Echinochloa crusgalli [2]; 1.5 g of ai/ha) of the same compound?
**A.** Its ECHCG % control is 40%.

**Q.** What about the ECHCG % control (Echinochloa crusgalli [2]; 3 g of ai/ha) of the same compound?
**A.** The ECHCG % control was 60%.

**Q.** What about the CYPSE % control (Cyperus serotinus; 1.5 g of ai/ha) of the same compound?
**A.** The CYPSE % control was 10%.

**Q.** And the CYPSE % control (Cyperus serotinus; 3 g of ai/ha)?
**A.** Its CYPSE % control is 30%.

**Q.** And the ORYSW % damage (Oryza sativa [3])?
**A.** The ORYSW % damage was 10%.

**Q.** And the ORYSW % damage (Oryza sativa [4]; 0.75 g of ai/ha)?
**A.** Its ORYSW % damage is 0%.

**Q.** What about the ORYSW % damage (Oryza sativa [4]; 1.5 g of ai/ha) of the same compound?
**A.** The ORYSW % damage was 0%.

**Q.** And the ORYSW % damage (Oryza sativa [4]; 2.5 g of ai/ha)?
**A.** The ORYSW % damage was 0%.

**Q.** What about the ORYSW % damage (Oryza sativa [5]) of the same compound?
**A.** The ORYSW % damage was 10%.

**Q.** What about the MASCR % control (Marsilea crenata) of the same compound?
**A.** Its MASCR % control is 33%.

**Q.** And the SAGPY % control (Sagittaria pygmaea; 1.5 g of ai/ha)?
**A.** The SAGPY % control was 30%.

**Q.** What about the SAGPY % control (Sagittaria pygmaea; 3 g of ai/ha) of the same compound?
**A.** The SAGPY % control was 50%.

**Q.** What about the ORYSW % damage (Oryza sativa [6]; 1.5 g of ai/ha) of the same compound?
**A.** The ORYSW % damage was 10%.

**Q.** What about the ORYSW % damage (Oryza sativa [6]; 3 g of ai/ha) of the same compound?
**A.** The ORYSW % damage was 10%.

**Q.** What about the ORYSW % damage (Oryza sativa [7]; 1.5 g of ai/ha) of the same compound?
**A.** The ORYSW % damage was 10%.

**Q.** And the ORYSW % damage (Oryza sativa [7]; 3 g of ai/ha)?
**A.** Its ORYSW % damage is 10%.

**Q.** And the CYPIR % control (Cyperus iria; 2.5 g of ai/ha)?
**A.** The CYPIR % control was 17%.

**Q.** And the CYPIR % control (Cyperus iria; 5 g of ai/ha)?
**A.** The CYPIR % control was 27%.

**Q.** What about the ORYSW % damage (Oryza sativa [8]) of the same compound?
**A.** The ORYSW % damage was 8%.

**Q.** And the ORYSW % damage (Oryza sativa [9]; 1.5 g of ai/ha)?
**A.** The ORYSW % damage was 10%.

**Q.** And the ORYSW % damage (Oryza sativa [9]; 3 g of ai/ha)?
**A.** The ORYSW % damage was 10%.

**Q.** What about the ORYSW % damage (Oryza sativa [10]; 1.25 g of ai/ha) of the same compound?
**A.** The ORYSW % damage was 5%.

**Q.** What about the ORYSW % damage (Oryza sativa [10]; 2.5 g of ai/ha) of the same compound?
**A.** Its ORYSW % damage is 10%.

**Q.** And the ORYSW % damage (Oryza sativa [10]; 5 g of ai/ha)?
**A.** Its ORYSW % damage is 10%.

**Q.** What about the ECHCG % control (Echinochloa crusgalli [11]; 1.5 g of ai/ha) of the same compound?
**A.** Its ECHCG % control is 40%.

**Q.** What about the ECHCG % control (Echinochloa crusgalli [11]; 3 g of ai/ha) of the same compound?
**A.** The ECHCG % control was 60%.

**Q.** And the ORYSW % damage (Oryza sativa [12]; 1.25 g of ai/ha)?
**A.** Its ORYSW % damage is 10%.

**Q.** And the ORYSW % damage (Oryza sativa [12]; 2.5 g of ai/ha)?
**A.** Its ORYSW % damage is 25%.

**Q.** What about the ORYSW % damage (Oryza sativa [12]; 5 g of ai/ha) of the same compound?
**A.** Its ORYSW % damage is 25%.

**Q.** And the ECHCG % control (Echinochloa crusgalli [13]; 1.5 g of ai/ha)?
**A.** Its ECHCG % control is 40%.

**Q.** What about the ECHCG % control (Echinochloa crusgalli [13]; 3 g of ai/ha) of the same compound?
**A.** Its ECHCG % control is 60%.

**Q.** What about the LEFFI % control (Leptochloa filiformis; 1.25 g of ai/ha) of the same compound?
**A.** Its LEFFI % control is 0%.

**Q.** And the LEFFI % control (Leptochloa filiformis; 2.5 g of ai/ha)?
**A.** Its LEFFI % control is 73%.

**Q.** And the LEFFI % control (Leptochloa filiformis; 5 g of ai/ha)?
**A.** Its LEFFI % control is 72%.

**Q.** What about the ELEIN % control (Eleusine indica; 1.25 g of ai/ha) of the same compound?
**A.** Its ELEIN % control is 0%.

**Q.** And the ELEIN % control (Eleusine indica; 2.5 g of ai/ha)?
**A.** The ELEIN % control was 0%.

**Q.** What about the ELEIN % control (Eleusine indica; 5 g of ai/ha) of the same compound?
**A.** Its ELEIN % control is 0%.

**Q.** What about the ORYSW % damage (Oryza sativa [14]; 2.5 g of ai/ha) of the same compound?
**A.** The ORYSW % damage was 0%.

**Q.** What about the ORYSW % damage (Oryza sativa [14]; 5 g of ai/ha) of the same compound?
**A.** Its ORYSW % damage is 0%.

**Q.** And the ORYSW % damage (Oryza sativa [15]; 2.5 g of ai/ha)?
**A.** The ORYSW % damage was 0%.

**Q.** And the ORYSW % damage (Oryza sativa [15]; 5 g of ai/ha)?
**A.** The ORYSW % damage was 0%.

**Q.** And the ORYSW % damage (Oryza sativa [16])?
**A.** Its ORYSW % damage is 0%.
